Experimental data taken from paper PMC9279640 (Acta Pharmaceutica Sinica. B, 2021).

Columns and labels:
Assay type in all cases: binding
mouse TREM2 (mTREM2) [1] = biological target: T1, mouse TREM2 (mTREM2) (Mus musculus, UniProt Q99NH8); test: microscale thermophoresis with labelled recombinant TREM2
T1 sequence (Q99NH8 19-227): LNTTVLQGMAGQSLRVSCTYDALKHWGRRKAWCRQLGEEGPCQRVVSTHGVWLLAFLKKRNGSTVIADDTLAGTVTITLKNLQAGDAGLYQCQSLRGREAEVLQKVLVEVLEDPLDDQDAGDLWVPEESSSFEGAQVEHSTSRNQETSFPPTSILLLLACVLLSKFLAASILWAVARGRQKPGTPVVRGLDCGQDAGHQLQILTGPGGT

APOE (apolipoprotein E) = APOE (apolipoprotein E) (Homo sapiens, UniProt P02649); test: microscale thermophoresis with labelled recombinant APOE
APOE (apolipoprotein E), sequence (P02649 19-317): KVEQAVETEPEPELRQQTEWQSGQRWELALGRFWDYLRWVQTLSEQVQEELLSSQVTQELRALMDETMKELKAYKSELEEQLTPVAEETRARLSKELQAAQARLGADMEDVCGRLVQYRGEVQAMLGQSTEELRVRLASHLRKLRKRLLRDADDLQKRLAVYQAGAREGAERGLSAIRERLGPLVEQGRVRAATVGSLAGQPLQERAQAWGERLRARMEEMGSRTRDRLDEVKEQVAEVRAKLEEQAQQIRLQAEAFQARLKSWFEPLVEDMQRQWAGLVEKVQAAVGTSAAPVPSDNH

rat TREM2 (rTREM2) = biological target: T2, rat TREM2 (rTREM2) (Rattus norvegicus, UniProt A0A6G8MV71); test: microscale thermophoresis with labelled recombinant TREM2
T2 sequence (A0A6G8MV71 19-229): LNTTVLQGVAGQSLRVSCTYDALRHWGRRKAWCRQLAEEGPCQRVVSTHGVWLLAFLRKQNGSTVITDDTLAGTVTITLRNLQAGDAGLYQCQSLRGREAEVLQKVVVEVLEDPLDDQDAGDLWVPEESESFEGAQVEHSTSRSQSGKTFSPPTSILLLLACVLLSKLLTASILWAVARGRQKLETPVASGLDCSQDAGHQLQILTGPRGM

human TREM2 (hTREM2) [2] = biological target: T3, human TREM2 (hTREM2) (Homo sapiens, UniProt Q9NZC2); test: as above
T3 sequence (Q9NZC2 19-230): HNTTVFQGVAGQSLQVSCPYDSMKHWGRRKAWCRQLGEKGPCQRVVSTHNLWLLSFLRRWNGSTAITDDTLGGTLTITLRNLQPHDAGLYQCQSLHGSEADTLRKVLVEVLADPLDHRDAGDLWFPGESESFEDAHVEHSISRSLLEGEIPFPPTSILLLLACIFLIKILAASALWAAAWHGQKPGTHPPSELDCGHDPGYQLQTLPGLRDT

mouse TREM2 (mTREM2) [3] = biological target: T1, mouse TREM2 (mTREM2); test: microscale thermophoresis
human TREM2 (hTREM2) [4] = biological target: T3, human TREM2 (hTREM2); test: microscale thermophoresis
TREM2 D104A (hTREM2) = biological target: T4, TREM2 D104A (hTREM2) (Homo sapiens, UniProt Q9NZC2, D104A); test: microscale thermophoresis with labelled TREM2 D104A
T4 sequence (Q9NZC2 19-174 D104A limits assumed): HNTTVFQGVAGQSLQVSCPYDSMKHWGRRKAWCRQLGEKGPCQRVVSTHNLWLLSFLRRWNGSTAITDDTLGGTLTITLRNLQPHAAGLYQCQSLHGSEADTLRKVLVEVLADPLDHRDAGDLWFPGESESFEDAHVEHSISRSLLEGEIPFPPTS

Row | Kd (mouse TREM2 (mTREM2) [1]) [µM] | Kd (APOE (apolipoprotein E)) [µM] | Kd (rat TREM2 (rTREM2)) [µM] | Kd (human TREM2 (hTREM2) [2]) [µM] | Kd (mouse TREM2 (mTREM2) [3]) [µM] | Kd (human TREM2 (hTREM2) [4]) [µM] | Kd (TREM2 D104A (hTREM2)) [µM] | Structure (SMILES)
1 | 72.6 ± 21 | 15.9 ± 7.41 | 7.17 ± 2.21 | 6.75 ± 1.8 | – | – | – | CCCCCCCCc1ccc(CC[C@](N)(CO)COP(=O)(O)O)cc1 [FTY720P]
2 | – | 6.64 ± 1.68 | 56.8 ± 14 | – | 64.6 ± 16.6 | 62.6 ± 11.9 | 593 ± 97.6 | CCCCCCCCCCCCC/C=C/[C@@H](O)[C@@H](N)COP(=O)(O)O [S1P]
